Experimental data as given in patent EP0199262A2, “Fluorinated benzyl triazole compounds” (CIBA-GEIGY AG, priority 1985, dated 1986).

Assays:
[1] = tested on: durch Elektroschock ausgelöste Konvulsionen; experiment: Protection against electroshock-induced convulsions, rat; type: in vivo, Ratte; settings: po, read-out: effektive Dosis ED50
Experimental: (§1) Die neuen Verbindungen besitzen wertvolle pharmakologische Eigenschaften, insbesondere eine ausgeprägte antikonvulsive Wirksamkeit, die sich beispielsweise an der Maus anhand eines deutlichen Metrazol-Antagonismus im Dosisbereicn von etwa 30 bis 300 mg/kg p.o. sowie an Maus und Ratte anhand einer ausgeprägten Schutzwirkung gegen durch Elektroschock ausgelöste Konvulsionen im Dosisbereich von etwa 1 bis etwa 50, in den meisten Fällen von etwa 1 bis etwa 25 mg/kg p.o. zeigen lässt. In diesem Modell wurden beispielsweise die folgenden Werte für die effektive Dosis ED50 in mg/kg p.o. erhalten (1 h Vorapplikation): • 1-(2,6-Difluorbenzyl)-1 H-1,2,3-triazof-4-carboxamid: 17 (Maus bzw. 8 (Ratte); • 1-(o-Fluorbenzyl)-1H-1,2,34dazol-4-carboxamid: 17 (Maus, Ratte); • 1-(2,6-Difluorbenzyl)-1 H-1,2,3-triazol-4,5-dicarboxamid: 4 (Maus, Ratte); • 1-(6-Chlor-2-fluor-phenyl)-1 H-1,2,3-triazol-4,5-dicarboxamid: 7 (Maus) bzw. 10 (Ratte), • 1-(o-Fluorphenyl)-1H-1,2,3-triazof-4,5-dicarboxamid: 6 (Maus) bzw. 10 (Ratte); • 1-(6-Chlor-2-fluar-phenyl)-1H-1,2,3-triazol-4-carboxamid: 11 (Maus); 1-(2,5-Difluorbenzyl)-1H-1,2,3-triazol-4,5-dicarboxamid: 6 (Maus).
(§2) Die erfindungsgemäss bereitgestellten fluorierten 1-(a-Phenylalkyl)-1H-1,2,3-triazolverbindungen der Formel (I) weisen ihren als antikonvulsiv wirksam bekannten Chloranalogen gegenüber den Vorteil einer verbesserten Wirksamkeit auf. So ergaben sich in obigem Modell z.B. folgende Ed50-Werte: • 1-(o-Chlorbenzyl)-1 H-1,2,3-triazol-4-carboxamid: 26 (Maus) bzw. 25 (Ratte) und • 1-(o-Chlorbenzyl)-1 H-1,2,3-triazol-4,5-dicarboxamid: 40 (Maus) bzw. 43 (Ratte).

[2] = tested on: durch Elektroschock ausgelöste Konvulsionen; experiment: Protection against electroshock-induced convulsions, mouse; type: in vivo, Maus; settings: po, read-out: effektive Dosis ED50
Experimental: as §1, §2

[3] = Ratte, electroshock, p.o., 1 h Vorapplikation
[4] = Maus, electroshock, p.o., 1 h Vorapplikation

NC(=O)c1cn(Cc2ccccc2Cl)nn1 [1-(o-Chlorbenzyl)-1 H-1,2,3-triazol-4-carboxamid, reference compound]
ED50 ([1]; 1 h): 25 mg/kg
ED50 ([2]; 1 h): 26 mg/kg

NC(=O)c1nnn(Cc2c(F)cccc2F)c1C(N)=O [1-(2,6-Difluorbenzyl)-1H-1,2,3-triazol-4,5-dicarboxamid]
ED50 [1, 3]: 4 mg/kg
ED50 [2, 4]: 4 mg/kg

NC(=O)c1cn(Cc2ccccc2F)nn1 [1-(o-Fluorbenzyl)-1 H-1,2,3-triazol-4-carboxamid]
ED50 ([1]; 1 h): 17 mg/kg
ED50 ([2]; 1 h): 17 mg/kg

NC(=O)c1nnn(Cc2ccccc2Cl)c1C(N)=O [1-(o-Chlorbenzyl)-1 H-1,2,3-triazol-4,5-dicarboxamid, reference compound]
ED50 [1, 3]: 43 mg/kg
ED50 [2, 4]: 40 mg/kg

NC(=O)c1cn(Cc2c(F)cccc2F)nn1 [1-(2,6-Difluorbenzyl)-1 H-1,2,3-triazol-4-carboxamid]
ED50 [1, 3]: 8 mg/kg
ED50 [2, 4]: 17 mg/kg

NC(=O)c1nnn(Cc2ccccc2F)c1C(N)=O [1-(o-Fluorbenzyl)-1 H-1,2,3,-triazol-4,5-dicarboxamid]
ED50 [1, 3]: 10 mg/kg
ED50 [2, 4]: 6 mg/kg

NC(=O)c1nnn(Cc2cc(F)ccc2F)c1C(N)=O [1-(2,5-Difluorbenzyl)-1H-1,2,3-triazol-4,5-dicarboxamid]
ED50 [2, 4]: 6 mg/kg

NC(=O)c1cn(Cc2c(F)cccc2Cl)nn1 [1-(6-Chlor-2-fluor-benzyl)-1H-1,2,3-triazol-4-carboxamid]
ED50 ([2]; 1 h): 11 mg/kg

NC(=O)c1nnn(Cc2c(F)cccc2Cl)c1C(N)=O [1-(6-Chlor-2-fluor-benzyl)-1 H-1,2,3-triazol-4,5-dicarboxamid]
ED50 [1, 3]: 10 mg/kg
ED50 [2, 4]: 7 mg/kg
